Measurements taken from paper PMC12906832, “Transgenic Tobacco Plants Expressing Synthetic Peptides: A Functional and Structural Analysis for Pathogen Resistance” (Plant Biotechnology Journal, 2025).
No end group written: not given here.

Assays:
HEK293 cells = test: MTT cell viability assay; format: cell-based, human; details: 24 h, concentrations up to 4× MIC99%, triplicate
Protocol: For details, please see section 1.2 of Supporting Information.
(§1) 1. Experimental Procedures
(§2) 1.1. Membrane permeabilization assay
(§3) Pseudomonas syringae pv. tabaci cells were grown till mid-logarithmic phase. The cells were […]
(§4) obtain a suspension containing 10^5 CFU/ml. 10µM of Propidium Iodide (Sigma Aldrich Co., St.
(§5) Louis, USA) was added to the cell suspension and incubated at room temperature, under shaking […]
fluorescence intensity was measured at 25 °C for 30 min at an excitation and emission wavelength of 535 nm and 617 nm respectively. After obtaining the fluorescence intensity of the stabilized cells, peptides were added at increasing concentrations, and the increase in fluorescence intensity was recorded. […]
(§6) HEK293 cell viability was monitored by MTT assay. […] Cell viability was then assessed by incubating the control and peptide treated cells using 100 µl of MTT (2mg/ml) for 3 h. The formazan crystals formed were dissolved in dimethyl sulfoxide (DMSO) and absorbance at 570 nm was recorded using SpectraMax M3 (Softmax Pro 6.3) multiplate reader. […] Cell viability was calculated using the equation: […]
1.3. […] A readseq program, (http://iubio.bio.indiana.edu/soft/molbio/readseq/) is used by the server that reads the protein sequences in standard formats like EMBL, FASTA, GCG or plain text format (Saha & Raghava, 2006). […]

[1] = Plant extract stability assay (RP-HPLC); format: in vitro ADME, Nicotiana tabacum; details: tobacco leaf extract (20% v/v) containing plant proteases; 1 mg peptide in 20% v/v tobacco leaf extract in 10 mM phosphate buffer pH 7.4, 37°C, stopped with 1% TFA, RP-HPLC C18 peak integration, mean ± SEM n = 3
Protocol: The stability of VR18 and KG18 in the presence of plant proteases present in plant leaf extract was monitored using a modified version of a previously reported protocol (Li et al. [2002]). Briefly, 1 g of 1‐month‐old tobacco leaf ( Nicotiana tabacum ) was crushed in liquid nitrogen, followed by extraction in 10 mM phosphate buffer (pH 7.4). The suspension was pelleted at 13500× g for 5 min, and the supernatant was collected. 1 mg of the respective peptide was added to a stock of 20% v/v plant extract in 10 mM phosphate buffer (pH 7.4) and incubated at 37°C. 100 μL of aliquots were withdrawn at appropriate time intervals, and the reaction was stopped using 1% trifluoroacetic acid (TFA). Plant extract (20% v/v) was used as a negative control. The aliquots were subjected to a LC‐20AT reverse phase HPLC system (SHIMADZU, Japan) equipped with a Phenomenix C18 column (250 × 10 mm, pore size 100 Å, particle size 5 μm) at room temperature, using acetonitrile and water with 0.1% TFA as the solvents. A flow rate of 1 mL/min was maintained. The percentage of peptide remaining in the plant extract at different time intervals was analysed by peak integration using […] software, and the area obtained was normalised with respect to the free peptide without the plant extract.

[2] = test system: Xanthomonas campestris pv. vesicatoria, X. campestris pv. campestris, X. oryzae pv. oryzae, Pseudomonas syringae pv. tabaci; details: 72 h
[3] = test system: Pseudomonas syringae pv. tabaci cells; test: Membrane permeabilization assay (propidium iodide uptake); format: cell-based; details: within 30 min of treatment, 10 µM PI, 10 mM phosphate buffer pH 7.4, normalised to Polymyxin B, n = 3
Protocol: Pseudomonas syringae pv. tabaci cells were prepared and incubated with Propidium Iodide. The increase in fluorescence intensity was checked upon the addition of peptides. For details, please see section 1.1 of Supporting Information.
as §1, §2, §3, §4, §5
fluorescence intensity was measured at 25 °C for 30 min at an excitation and emission wavelength of 535 nm and 617 nm respectively. After obtaining the fluorescence intensity of the stabilized cells, peptides were added at increasing concentrations, and the increase in fluorescence intensity was recorded. Normalization was done using measurement of cells treated with Polymyxin B that served as control. […]
as §6

| Substance | cytotoxic effect on HEK 293 cells (MTT) (HEK293 cells) | half-life [1] [h] | IC50 [2] [µM] | minimal inhibitory concentration (MIC99%) [2] [µM] | propidium iodide (PI) uptake [3] |
| --- | --- | --- | --- | --- | --- |
| KNKSRVARGWGRKCPLFG [KG18] | no toxicity | > 1 | 2.75 to 5.5 | 3 to 10 | – |
| Polymyxin B | – | – | – | – | maximum PI uptake |
| VARGWGRKCPLFGKNKSR [VR18] | no toxicity | > 1 | 1.5 to 4.25 | 3 to 10 | – |
